Target: T1, amyloid beta peptide 42 (Aβ42) protein aggregates (Homo sapiens, UniProt P05067)
T1 construct: amyloid beta peptide 42 (Aβ42) protein aggregates
Test: Atomic force microscopy (AFM) of amyloid beta peptide protein aggregation
Assay type: biochemical
Conditions: pre-incubated 10 μM Aβ42, 1:1 compound:Aβ42 ratio, 60 minutes after compound addition
Protocol: Atomic force microscopy (AFM) was utilized to study the effect of compound 1 on the formation of larger scale amyloid beta peptide 42 (Aβ42) protein aggregates and to determine the effect on pre-formed aggregates and fibrils. Amyloid beta peptide 42 protein aggregates are a major component of the amyloid plaques found in the brains of people with Alzheimer's disease. A 50 μL aliquot of 10 μM Aβ42 solution in 10 mM ammonium acetate was removed and drop-cast onto a mica disc, dried at ambient conditions in a desiccator, and imaged. It took approximately 5 min to prepare the peptide and for the disc to dry, making it the earliest time Aβ42 aggregation can be observed. After 5 min incubation, large globular aggregates formed but few fibrils were observed (FIG. 1A). After 60 min, there was a clear trend toward higher fibril content and larger oligomers. Thus, FIG. 1A represents a control, showing Aβ42 aggregation without the addition of any compound causing Aβ42 aggregation disruption.
Compound 1 was added to the same solution of pre-incubated Aβ42 in a 1:1 compound:Aβ42 ratio. The AFM image shown in FIG. 1B was taken at 60 minutes after compound 1 addition.

T1 sequence (P05067 672-713 limits assumed): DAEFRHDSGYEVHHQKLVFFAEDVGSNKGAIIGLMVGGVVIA

Aβ42 protein aggregation (AFM image, FIG. 1B): dramatic reduction
SMILES: CC(=O)Nc1ccc2c(c1)CCN(CCc1cccc(Cl)c1)C2 [Compound 1]
